Measured values taken from US8952036B2, “Benzoic acid derivative MDM2 inhibitor for the treatment of cancer” (Amgen Inc., priority 2013, dated 2015).
Entries after “also recorded” stand apart in the source; their conditions may differ. Like-named read-outs stand apart in the source and are kept apart here.

Experiments:
[1] = system: Cryopreserved human hepatocytes; assay: Human Hepatocyte Intrinsic Clearance Assay; settings: for human hepatocyte clearance (comparison): comparison between Examples, in words
Description: (§4) Cryopreserved human hepatocytes pooled from 20 donors (Celsis-In Vitro Technologies, Baltimore, Md.) were used to determine the intrinsic clearance of the Example compounds. […] At 0, 5, 15, 30, 60 and 90 minutes, aliquots of incubation mixture were removed from the incubator, and quenched with acetonitrile containing 0.1% (v/v) formic acid and internal standard (7-hydroxy-4-trifluoromethylcoumarin). Samples were then centrifuged at 5700 rpm (6100 g) at 4° C. for 10 minutes. Supernatants were transferred to a sample plate, mixed with equal volume of water containing 0.1% formic acid, and analyzed using LC-MS/MS.
(§5) The LC-MS/MS system for sample analysis consisted of a reverse phase UHPLC (Shimadzu Model Nexera LC-30AD, Shimadzu Scientific Instruments, Inc, Columbia, Md.) interfaced with an API4000 triple quadruple mass spectrometer operating in negative ion mode (Applied Biosystems, Inc., Foster City, Calif.). Chromatographic separation was achieved using a Phenomenex Kinetex Luna C18 column (Phenomenex, Torrance, Calif.) (2×50 mm, 2.6 μm) maintained at 55° C. with a mobile phase flow rate of 1.2 mL/min. The mobile phase consisted of 0.1% formic acid in water (A) and 0.1% formic acid in acetonitrile (B).

[2] = Human Hepatocyte Intrinsic Clearance Assay; settings: human, cryopreserved human hepatocytes pooled from 20 donors
Description: as §4, §5

[3] = system: CYP3A4; settings: human, 48 h; for CYP3A4 mRNA induction: hepatocytes
Description: (§1) Human Hepatocyte CYP1A2, CYP2B6, and CYP3A4 Induction Assay
(§2) Materials. […] Insulin-transferrin-selenium supplement (ITS), penicillin-streptomycin-L-glutamine supplement (PSG), fetal bovine serum (FBS), phosphate-buffered saline (PBS), cryopreserved hepatocyte recovery medium (CHRM), and three individual-donor lots of cryopreserved adult human hepatocytes were obtained from Life Technologies (Grand Island, N.Y.). Collagen I-precoated 24-well plates and hydroxybupropion were acquired from Becton Dickinson Labware (Bedford, Mass.). Branched DNA (b-DNA) probe sets for human CYP1A2, CYP2B6, CYP3A4, and 18S rRNA and the Panomics Discovery XL Kit were purchased from Affymetrix Inc. (Santa Clara, Calif.).
In vitro Methods. […] Individual lots were plated in collagen-coated 24-well plates with approximately 0.38×10^6 cells/well. […] After the attachment period, the plating medium and unattached cells were removed by aspiration and 37° C. HMM was added to each well (0.5 mL/well), and the cells were incubated overnight. On Day 2, the medium was aspirated and fresh 37° C. HMM was reapplied to the cells for an overnight acclimation period. […] The Example compounds to be tested were prepared in DMSO stock solutions resulting in final incubation concentrations of 0.1% DMSO. Example compound treatment was maintained for a total of 48 hours. On Day 5, the medium was aspirated, and the hepatocytes were gently washed one time with KHB (37° C., pH 7.4). The KHB was removed, and a second application of KHB was administered (0.5 mL/well). The hepatocytes were placed back into the incubator and allowed to acclimate to the KHB for 10 minutes. P450 enzyme activities were subsequently determined by the addition of marker substrates phenacetin (100 μM, CYP1A2 probe substrate, 30-minute incubation) bupropion hydrochloride (100 μM, CYP2B6 probe substrate, 20-minute incubation), and testosterone (200 μM, CYP3A4 probe substrate, 14-minute incubation) which were dissolved in KHB (37° C., pH 7.4, 0.5 mL/well). After the substrate incubation periods, the buffers were collected and stored at −80° C. until analyzed. Hepatocytes used for mRNA analysis were washed once in PBS (0.5 mL/well, 25° C., containing calcium and magnesium) and protocol-prepared b-DNA lysis buffer was added to each well (0.5 mL/well). The hepatocytes were lysed by gently pipetting the lysis buffer up and down five times, and the plates were stored at −80° C. until analysis.
P450 mRNA Analysis. CYP1A2, CYP2B6, and CYP3A4 mRNA content was determined with branched DNA (b-DNA) signal amplification technology using the Panomics Discover XL Kit with assays performed according to the manufacturer's instructions. b-DNA probe sets containing capture extender, label extender, and blocking probes for human CYP1A2, CYP2B6, CYP3A4, and 18S rRNA were purchased from Affymetrix Inc. Plate washing steps were performed on an Elx405 automated microplate washer (BioTek Instruments Inc., Winooski, Vt.), and luminescence was analyzed on a Luminoskan Ascent microplate luminometer (Thermo Lab Systems, Helsinki, Finland). P450 mRNA levels were normalized to the mRNA levels of the housekeeping gene 18S rRNA.
(§3) Data Reporting. For each P450 isoform for mRNA analysis, fold increases over vehicle control (with vehicle control set to 1.0) were calculated for positive controls and each treatment group for the Example compounds.

[4] = system: CYP1A2, CYP2B6 or CYP3A4; assay: Human Hepatocyte CYP1A2, CYP2B6, and CYP3A4 Induction Assay (summary); format: in vitro ADME; settings: human hepatocytes, mRNA
Description: as §1, §2
In vitro Methods. […] Individual lots were plated in collagen-coated 24-well plates with approximately 0.38×10^6 cells/well. […] After the attachment period, the plating medium and unattached cells were removed by aspiration and 37° C. HMM was added to each well (0.5 mL/well), and the cells were incubated overnight. On Day 2, the medium was aspirated and fresh 37° C. HMM was reapplied to the cells for an overnight acclimation period. […] The Example compounds to be tested were prepared in DMSO stock solutions resulting in final incubation concentrations of 0.1% DMSO. Example compound treatment was maintained for a total of 48 hours. […] P450 enzyme activities were subsequently determined by the addition of marker substrates phenacetin (100 μM, CYP1A2 probe substrate, 30-minute incubation) bupropion hydrochloride (100 μM, CYP2B6 probe substrate, 20-minute incubation), and testosterone (200 μM, CYP3A4 probe substrate, 14-minute incubation) which were dissolved in KHB (37° C., pH 7.4, 0.5 mL/well). After the substrate incubation periods, the buffers were collected and stored at −80° C. until analyzed. […]
as §3

Row | hepatocyte CLint at 500 nM [2] [µL/min/1e6 cells] | mRNA % of Positive Control (Donor One) ([3]; 0.1 μM) [%] | mRNA % of Positive Control (Donor Three) ([3]; 0.1 μM) [%] | mRNA % of Positive Control (Donor Two) ([3]; 0.1 μM) [%] | mRNA % of Positive Control (Donor One) ([3]; 1 μM) [%] | mRNA % of Positive Control (Donor Three) ([3]; 1 μM) [%] | mRNA % of Positive Control (Donor Two) ([3]; 1 μM) [%] | mRNA % of Positive Control (Donor One) ([3]; 10 μM) [%] | mRNA % of Positive Control (Donor Three) ([3]; 10 μM) [%] | mRNA % of Positive Control (Donor Two) ([3]; 10 μM) [%] | CYP3A4 mRNA induction [3] | Induction Assay Summary [4] | Human hepatocyte CLint assay (μL/min/10^6 cells) ([1]; 500 nM, pooled human hepatocytes 1 million cells/mL) | mRNA % of Positive Control (one donor) ([3]; 0.1 μM) [%] | mRNA % of Positive Control (one donor) ([3]; 1 μM) [%] | mRNA % of Positive Control (one donor) ([3]; 10 μM) [%] | Structure (SMILES) | human hepatocyte clearance (comparison) [1]
1 | 26 | – | – | – | – | – | – | – | – | – | – | – | – | – | – | – | CC(C)(C)S(=O)(=O)C[C@H](C1CC1)N1C(=O)[C@@](C)(CC(N)=O)C[C@H](c2cccc(Cl)c2)[C@H]1c1ccc(Cl)cc1 [Example 2, 2-((3R,5R,6S)-1-((S)-2-(tert-Butylsulfonyl)-1-cyclopropylethyl)-5-(3-chlorophenyl)-6-(4-chlorophenyl)-3-methyl-2-oxopiperidin-3-yl)acetamide] | hepatocyte clearance increases
2 | 28 | 1.71 | 0.15 | 4.95 | 17.15 | 3.21 | 10.38 | 37.77 | 37.60 | 45.78 | exhibit CYP3A4 mRNA induction | CYP3A4 | – | – | – | – | CC(C)(C)S(=O)(=O)C[C@H](C1CC1)N1C(=O)[C@@](C)(CC(=O)Nc2ccccc2)C[C@H](c2cccc(Cl)c2)[C@H]1c1ccc(Cl)cc1 [Example 3, 2-((3R,5R,6S)-1-((S)-2-(tert-Butylsulfonyl)-1-cyclopropylethyl)-5-(3-chlorophenyl)-6-(4-chlorophenyl)-3-methyl-2-oxopiperidin-3-yl)-N-phenylacetamide] | further increases
3 | 26 | 1.62 | 0.42 | 2.30 | 2.96 | 0.47 | 7.29 | 10.14 | 3.07 | 12.51 | – | None | – | – | – | – | CC(C)(C)S(=O)(=O)C[C@H](C1CC1)N1C(=O)[C@@](C)(CC(=O)O)C[C@H](c2cccc(Cl)c2)[C@H]1c1ccc(Cl)c(F)c1 [Example 4, 2-((3R,5R,6S)-1-((S)-2-(tert-Butylsulfonyl)-1-cyclopropylethyl)-6-(4-chloro-3-fluorophenyl)-5-(3-chlorophenyl)-3-methyl-2-oxopiperidin-3-yl)acetic acid] | higher human hepatocyte clearance than the compound of Example 1
4 | 1.45 | – | – | – | – | – | – | – | – | – | does not show CYP3A4 mRNA induction | None | 1.45 | −1.49 | 0.34 | 0.98 | COc1cc(NC(=O)C[C@@]2(C)C[C@H](c3cccc(Cl)c3)[C@@H](c3ccc(Cl)c(F)c3)N([C@H](CS(=O)(=O)C(C)(C)C)C3CC3)C2=O)ccc1C(=O)O [Example 5, 4-(2-((3R,5R,6S)-1-((S)-2-(tert-Butylsulfonyl)-1-cyclopropylethyl)-6-(4-chloro-3-fluorophenyl)-5-(3-chlorophenyl)-3-methyl-2-oxopiperidin-3-yl)acetamido)-2-methoxybenzoic acid] | lower human hepatocyte clearance than either of the compounds of Examples 1 or 4; also recorded: lower human hepatocyte clearance than any of Examples 1 to 4
